# Test results: patent publication US8927579B2, “Male contraceptive” (priority 2007, dated 2015)
# Where a name gives a salt, the structure may show the parent alone.
# Tests used:
# [1] = test system: circular muscle of human vas deferens; test: Contractile actions of L-type Ca2+ agonists, circular muscle; details: for contractions on second exposure to [K+]o, percentage of corresponding initial responses, circular muscle: [K+]o 30 mM & 120 mM in the continuous presence of agonist 1.0 μM; for response of circular muscle to higher concentration of L-type Ca2+ agonist: agonist 10 μM; for response of circular muscle to brief exposure to L-type Ca2+ agonist: agonist 0.1-3 μM
# Source text: (§1) Human vas deferens specimens were obtained after elective vasectomies of healthy fertile men. College ethical approval and the consent of patients were obtained. The specimens were placed in ice-cold Krebs' medium, dissected-free of connective tissue/blood vessels and cut longitudinally into strips (longitudinal muscle preparations; 5-10 mm long & 1 mm wide) or transversely into rings (circular muscle preparations; 3 mm in length). The longitudinal and circular muscle preparations were then set up for tension recording (resting tension 5-7 mN) in a Perspex chamber superfused at 2 ml per min with Krebs' medium (36° C.) composed of (mM): NaCl, 118.8; NaHCO3, 25; KCl, 4.7; CaCl2.2H2O, 2.5; KH2PO4, 1.2; MgSO4.7H2O, 1.2; glucose, 11.1; ascorbic acid 0.1 and continuously gassed with 95% O2 and 5% CO2. Contractile responses were recorded via a Harvard-type force-displacement transducer. The analog signals were digitised using CIO-Das 16/Jr data acquisition software (Amplicon Liveline, Brighton, UK) and re-plotted on a microcomputer.
# (§2) Tissues were equilibrated for 180 min in Krebs' medium containing inhibitors of extraneuronal and neuronal reuptake of noradrenaline, oestradiol (1 μM) and desipramine (0.1 μM) respectively, inhibitors of catechol-O-methyltransferase and monoamine oxidase, tropolone (10 μM) and iproniazid (10 μM) respectively and the β-adrenoceptor blocker, propranolol (1 μM). At the end of the equilibration period, the tissues were stimulated with noradrenaline (100 μM). […] After a contact time of 30-40 min in this medium, different experimental protocols (described below) were adopted in order to • (a) Elucidate the contractile actions of L-type Ca^2+ agonists such as FPL 64176 or Bay K 8644. In these experiments, tissues were exposed to FPL 64176 (0.1-10 μM added cumulatively) or in separate experiments Bay K 8644 (0.1-10 μM added cumulatively). • (b) Investigate the effects of various diphenylalkylamines and conventional L-type Ca^2+ antagonists (methoxyverapamil or nifedipine) on contractions evoked by high concentrations of extracellular potassium (high [K^+]o) in the presence of L-type Ca^2+ agonists, FPL 64176 (1 μM) or Bay K 8644 (1 μM). In this protocol, tissues were stimulated with high [K^+]O (10, 30 and 120 mM at 10-15 min intervals) in normal Krebs' medium, then exposed to L-type Ca^2+ agonists for 20-30 min and subsequently stimulated with high [K^+]O (10, 30 and 120 mM) in the presence of the drugs. These provided the initial responses. Following this and in the continuous presence of the L-type Ca^2+ agonists, the tissues were exposed additionally to L-type Ca^2+ antagonists (conventional or diphenylalkylamines) or drug-free vehicle medium. After contact times of 25-50 min the tissues were stimulated, first with high [K^+]O (either 30 mM or 120 mM) in order to take account of the well-documented use-dependent action of the diphenylalkylamine Ca^2+ antagonists. Following recovery from the test contraction and after a further 30-40 min, the tissues were then stimulated with high [K^+]o (10, 30 and 120 mM). This protocol is illustrated in FIGS. 3 and 4. The resulting contractions were measured (see below) and expressed as a percentage of corresponding initial responses to high [K^+]o evoked in the presence of L-type Ca^2+ agonists (i.e. before exposure to L-type Ca^2+ antagonists). […] Subsequent analysis (see below) was between contractions of drug-treated tissues and time-matched controls • (c) Determine the inhibitory potencies (IC50 values) of various diphenylalkylamines and phenothiazines and conventional L-type Ca^2+ antagonists (nifedipine and methoxyverapamil) against contractions evoked in longitudinal and circular muscle of human vas deferens by high [K^+]o (120 mM) in the presence of FPL 64176. In these experiments, tissues were stimulated with high [K^+]o (120 mM); sequentially in normal Krebs' medium and after 25-30 min exposure to the L-type Ca^2+ agonist, FPL 64176, (1 μM, Initial response). […]
# [2] = test system: longitudinal muscle of human vas deferens; test: Contractile actions of L-type Ca2+ agonists, longitudinal muscle; details: for contractions on second exposure to [K+]o, percentage of corresponding initial responses, longitudinal muscle: [K+]o 30 mM & 120 mM in the continuous presence of agonist 1.0 μM; for response of longitudinal muscle to higher concentration of L-type Ca2+ agonist: agonist 10 μM; for response of longitudinal muscle to brief exposure to L-type Ca2+ agonist: agonist 0.1-3 μM
# Source text: as §1, §2
# [3] = test system: longitudinal muscle of human vas deferens; test: IC50 against contractions evoked by high K+ (120 mM) in the presence of FPL 64176, longitudinal muscle strips; details: Homo sapiens; contractions evoked by K+ (120 mM) in the presence of FPL 64176 (1 μM); means ± S.E.M.
# Source text: as §1, §2
# [4] = test system: circular muscle of human vas deferens; test: IC50 against contractions evoked by high K+ (120 mM) in the presence of FPL 64176, circular muscle rings; details: Homo sapiens; contractions evoked by K+ (120 mM) in the presence of FPL 64176 (1 μM); means ± S.E.M.
# Source text: as §1, §2
# [5] = test system: circular muscle of human vas deferens; test: Inhibition at fixed concentration of contractions evoked by high K+ in the presence of FPL 64176, circular muscle; details: drug 10 μM
# Source text: as §1
# (§3) Tissues were equilibrated for 180 min in Krebs' medium containing inhibitors of extraneuronal and neuronal reuptake of noradrenaline, oestradiol (1 μM) and desipramine (0.1 μM) respectively, inhibitors of catechol-O-methyltransferase and monoamine oxidase, tropolone (10 μM) and iproniazid (10 μM) respectively and the β-adrenoceptor blocker, propranolol (1 μM). At the end of the equilibration period, the tissues were stimulated with noradrenaline (100 μM). […] After a contact time of 30-40 min in this medium, different experimental protocols (described below) were adopted in order to • (a) Elucidate the contractile actions of L-type Ca^2+ agonists such as FPL 64176 or Bay K 8644. In these experiments, tissues were exposed to FPL 64176 (0.1-10 μM added cumulatively) or in separate experiments Bay K 8644 (0.1-10 μM added cumulatively). • (b) Investigate the effects of various diphenylalkylamines and conventional L-type Ca^2+ antagonists (methoxyverapamil or nifedipine) on contractions evoked by high concentrations of extracellular potassium (high [K^+]o) in the presence of L-type Ca^2+ agonists, FPL 64176 (1 μM) or Bay K 8644 (1 μM). In this protocol, tissues were stimulated with high [K^+]O (10, 30 and 120 mM at 10-15 min intervals) in normal Krebs' medium, then exposed to L-type Ca^2+ agonists for 20-30 min and subsequently stimulated with high [K^+]O (10, 30 and 120 mM) in the presence of the drugs. These provided the initial responses. Following this and in the continuous presence of the L-type Ca^2+ agonists, the tissues were exposed additionally to L-type Ca^2+ antagonists (conventional or diphenylalkylamines) or drug-free vehicle medium. After contact times of 25-50 min the tissues were stimulated, first with high [K^+]O (either 30 mM or 120 mM) in order to take account of the well-documented use-dependent action of the diphenylalkylamine Ca^2+ antagonists. Following recovery from the test contraction and after a further 30-40 min, the tissues were then stimulated with high [K^+]o (10, 30 and 120 mM). This protocol is illustrated in FIGS. 3 and 4. The resulting contractions were measured (see below) and expressed as a percentage of corresponding initial responses to high [K^+]o evoked in the presence of L-type Ca^2+ agonists (i.e. before exposure to L-type Ca^2+ antagonists). […]
# [6] = test system: longitudinal muscle of human vas deferens; test: Inhibition at fixed concentration of contractions evoked by high K+ in the presence of FPL 64176, longitudinal muscle; details: drug 10 μM
# Source text: as §1
# as §3, with “Following this and in the continuous presence of the L-type Ca^2+ agonists, the tissues were exposed additionally to L-type Ca^2+ antagonists (conventional or diphenylalkylamines) or drug-free vehicle medium. After contact times of 25-50 min the tissues were stimulated, first with high [K^+]O (either 30 mM or 120 mM) in order to take account of the well-documented use-dependent action of the diphenylalkylamine Ca^2+ antagonists. Following recovery from the test contraction and after a further 30-40 min, the tissues were then stimulated with high [K^+]o (10, 30 and 120 mM). This protocol is illustrated in FIGS. 3 and 4.” left out
# [7] = test system: circular muscle of human vas deferens; test: New molecules against contractions to high K+ (120 mM), circular muscle; details: contractions evoked by K+ (120 mM), preliminary data, mean, n=2-3, read-out: Functional inhibitory potencies (IC50 values), Circular muscle
# Source text: as §1, with “preparations; 5-8” for “preparations; 5-10”, “preparations; ˜3” for “preparations; 3”, “a Harvard type” for “a Harvard-type”
# (§4) Tissues were equilibrated for 180 min in Krebs' medium containing inhibitors of extraneuronal and neuronal reuptake of noradrenaline, oestradiol (1 μM) and desipramine (0.1 μM) respectively, inhibitors of catechol-O-methyltransferase and monoamine oxidase, tropolone (10 μM) and iproniazid (10 μM) respectively and the β-adrenoceptor blocker, propranolol (1 μM). At the end of the equilibration period, the tissues were stimulated with noradrenaline (100 μM). […] After 40-45 min in this medium the tissues were stimulated with high [K^+]O (120 mM, Initial response). This was followed by exposure to cumulative concentrations of the new molecules {NIBA(1)XC1, NIBA(14)XN10, NIBA(6)XN3, NIBA(2)XC2, NIBA(53)XN16} or to Krebs' medium containing drug vehicles (time-matched controls). After contact times of 40-60 min at each drug concentration, the tissues were stimulated with high [K^+]o (120 mM). The resulting contractions were measured using computer software developed in-house to measure the total response (i.e. rhythmic activity plus tonic contraction). Contractions obtained in the presence of the new drug molecules were expressed as a percentage of the initial contraction evoked by high [K^+]o (120 mM) before exposure to the drugs.
# [8] = test system: longitudinal muscle of human vas deferens; test: New molecules against contractions to high K+ (120 mM), longitudinal muscle; details: for IC50: Homo sapiens, contractions evoked by K+ (120 mM), preliminary data, mean, n=2-3, read-out: Functional inhibitory potencies (IC50 values), Longitudinal muscle; for relative effectiveness against longitudinal and circular muscle contractions: contractions evoked by high [K+]o; for Selectivity [(C/L)-1]: longitudinal muscle selectivity from IC50 values in circular and longitudinal muscle, K+ (120 mM)
# Source text: as §1, with “preparations; 5-8” for “preparations; 5-10”, “preparations; ˜3” for “preparations; 3”, “a Harvard type” for “a Harvard-type”
# as §4
# [9] = Homo sapiens, [K+]o 120 mM in the presence of FPL 64176
# [10] = [K+]o 30 mM in the presence of FPL 64176 (1.0 μM)
structure (smiles),measurement,setting,value
COC(=O)C1=C(C)NC(C)=C([N+](=O)[O-])[C@H]1c1ccccc1C(F)(F)F [Bay K 8644],"contractions on second exposure to [K+]o, percentage of corresponding initial responses, circular muscle",[1],86-92%
same,response of circular muscle to higher concentration of L-type Ca2+ agonist,[1],rhythmic contractility
same,response of circular muscle to brief exposure to L-type Ca2+ agonist,[1],unresponsive
same,"contractions on second exposure to [K+]o, percentage of corresponding initial responses, longitudinal muscle",[2],~92%
same,response of longitudinal muscle to higher concentration of L-type Ca2+ agonist,[2],rhythmic contractility
same,response of longitudinal muscle to brief exposure to L-type Ca2+ agonist,[2],unresponsive
"CN(C)CCCN1c2ccccc2Sc2ccc(Cl)cc21 [Chlorpromazine, chlorpromazine hydrochloride]",IC50,[3],12.4 ± 2.9 µM
same,IC50,[4],18.3 ± 6 µM
"COC(=O)c1c(C)[nH]c(C)c1C(=O)c1ccccc1Cc1ccccc1 [FPL 64176, 2,5-dimethyl-4-[2-(phenylmethyl)benzoyl]-H-pyrrole-3-carboxylic acid methyl ester]","contractions on second exposure to [K+]o, percentage of corresponding initial responses, circular muscle",[1],270-300%
same,response of circular muscle to higher concentration of L-type Ca2+ agonist,[1],rhythmic contractility
same,response of circular muscle to brief exposure to L-type Ca2+ agonist,[1],quiescent
same,"contractions on second exposure to [K+]o, percentage of corresponding initial responses, longitudinal muscle",[2],160-181%
same,response of longitudinal muscle to higher concentration of L-type Ca2+ agonist,[2],rhythmic contractility
same,response of longitudinal muscle to brief exposure to L-type Ca2+ agonist,[2],quiescent
"Fc1ccc(C(c2ccc(F)cc2)N2CCN(C/C=C/c3ccccc3)CC2)cc1 [Flunarizine, flunarizine dihydrochloride]",inhibition at 10 µM,[5]; [9],40 to 44%
same,inhibition of circular muscle contractions compared to time-matched controls,[5]; [10],20-30%
same,inhibition at 10 µM,[6]; [9],40 to 44%
same,inhibition of longitudinal muscle contractions compared to time-matched controls,[6]; [10],20-30%
COCC(=O)O[C@]1(CCN(C)CCCc2nc3ccccc3[nH]2)CCc2cc(F)ccc2[C@@H]1C(C)C [Mibefradil],IC50,[3],1.1 ± 0.2 µM
same,IC50,[4],2.4 ± 0.9 µM
CN1CCCCC1CNCCC(c1ccccc1)c1ccccc1 (centres unmarked) [NIBA(1)XC1],IC50,[7],24.2 µM
same,IC50,[8],3.02 µM
same,relative effectiveness against longitudinal and circular muscle contractions,[8],more effective against longitudinal than circular muscle contractions
same,Selectivity [(C/L)-1],[8],7.01
CC1CCCCN1CCC(c1ccccc1)c1ccccc1 (centres unmarked) [NIBA(2)XC2],IC50,[7],11.1 µM
same,IC50,[8],3 µM
same,relative effectiveness against longitudinal and circular muscle contractions,[8],more effective against longitudinal than circular muscle contractions
same,Selectivity [(C/L)-1],[8],2.69
CN1CCCCC1CCN(c1ccccc1)c1ccccc1 (centres unmarked) [NIBA(6)XN3],IC50,[7],> 30 µM
same,IC50,[8],6.25 µM
same,relative effectiveness against longitudinal and circular muscle contractions,[8],more effective against longitudinal than circular muscle contractions
same,Selectivity [(C/L)-1],[8],>3.8
